{"source": "patent US10538555B2", "about": "“Macrocyclic inhibitors of the PD-1/PD-L1 and CD80(B7-1)/PD-L1 protein/protein interactions” (BRISTOL-MYERS SQUIBB COMPANY, priority 2014, dated 2020)", "note": "Where a SMILES comes first, the peptide text is derived from it. Bridges are numbered along the chain shown (N, C = ends). [ ]: non-standard residue; d: D form. Morpholine(3S-CO) = O=C(O)[C@@H]1COCCN1; Bta = N[C@@H](Cc1csc2ccccc12)C(=O)O; Hyp = O=C(O)[C@@H]1C[C@@H](O)CN1; NMeNle = CCCC[C@H](NC)C(=O)O; Pip = O=C(O)[C@@H]1CCCCN1; Dab = NCC[C@H](N)C(=O)O; Dap = NC[C@H](N)C(=O)O", "data": [{"biological_target": "T1, Human PD-L1/PD-1 (Homo sapiens, UniProt Q9NZQ7)", "T1 construct": "TVMV protease cleavage site (C); made in house; host or cells: HEK293T cells", "T1 sequence (Q9NZQ7 with tags, fused parts or gaps)": "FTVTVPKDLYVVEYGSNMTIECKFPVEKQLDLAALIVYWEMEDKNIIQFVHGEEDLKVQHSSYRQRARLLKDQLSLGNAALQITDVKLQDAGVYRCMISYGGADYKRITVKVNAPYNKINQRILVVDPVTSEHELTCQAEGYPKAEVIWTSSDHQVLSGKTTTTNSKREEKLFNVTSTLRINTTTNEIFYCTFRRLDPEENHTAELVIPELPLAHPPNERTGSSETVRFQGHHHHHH", "experiment": "HTRF Human PD-L1/PD-1 binding assay (PD-1-Ig/PD-L1-His)", "conditions": "PD-L1-His 10 nM, PD-1-Ig 20 nM; class symbol; read-out: HTRF Human PD-L1/PD-1 Binding Assay IC50 Range", "how_it_was_run": "(§1)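 Inhibitors were preincubated 15 min with human PD-L1(18-239)-His (10 nM final), then PD-1(25-167)-Ig (20 nM final) was added for 15 min in dPBS/0.1% BSA/0.05% Tween-20. Eu-cryptate anti-Ig (1 nM) and APC anti-His (20 nM) were added; 665/620 nm ratio read after 30 min.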", "units": {"IC50": "nM"}, "values": [{"smiles": "CCCC[C@H]1C(=O)N(C)[C@@H](CCCC)C(=O)N[C@@H](CC(C)C)C(=O)N[C@H](C(=O)NCC(N)=O)CSCC(=O)N[C@@H](Cc2ccc(O)cc2)C(=O)N2CCCC[C@H]2C(=O)N[C@@H](CC(=O)O)C(=O)N2CCC[C@H]2C(=O)N[C@@H](Cc2cnc[nH]2)C(=O)N[C@@H](CCC(N)=O)C(=O)N2C[C@H](O)C[C@H]2C(=O)N[C@@H](Cc2c[nH]c3ccccc23)C(=O)N[C@@H](CO)C(=O)N[C@@H](Cc2csc3ccccc23)C(=O)N1C", "note": "[Example 1511] ({CH2CO}-Y[Pip]DPHQ[Hyp]WS[Bta][NMeNle][NMeNle]LCG-NH2; thioether N-14)", "IC50": "1 to 9.9"}, {"smiles": "CCCC[C@H]1C(=O)N(C)[C@@H](CCCC)C(=O)N[C@@H](CCC(=O)O)C(=O)N[C@H](C(=O)NCC(N)=O)CSCC(=O)N[C@@H](Cc2ccc(O)cc2)C(=O)N2CCCC[C@H]2C(=O)N[C@@H](CC(=O)O)C(=O)N2CCC[C@H]2C(=O)N[C@@H](Cc2cnc[nH]2)C(=O)N[C@@H](CCC(=O)O)C(=O)N2C[C@H](O)C[C@H]2C(=O)N[C@@H](Cc2c[nH]c3ccccc23)C(=O)N[C@@H](CO)C(=O)N[C@@H](Cc2csc3ccccc23)C(=O)N1C", "note": "[Example 1512] ({CH2CO}-Y[Pip]DPHE[Hyp]WS[Bta][NMeNle][NMeNle]ECG-NH2; thioether N-14)", "IC50": "10 to 99.9"}, {"smiles": "CCCC[C@H]1C(=O)N(C)[C@@H](CCCC)C(=O)N[C@@H](C)C(=O)N[C@H](C(=O)NCC(N)=O)CSCC(=O)N[C@@H](Cc2ccc(O)cc2)C(=O)N2CCOC[C@H]2C(=O)N[C@@H](CC(=O)O)C(=O)N2CCC[C@H]2C(=O)N[C@@H](Cc2cnc[nH]2)C(=O)N[C@@H](CCC(N)=O)C(=O)N2C[C@H](O)C[C@H]2C(=O)N[C@@H](Cc2c[nH]c3ccccc23)C(=O)N[C@@H](CO)C(=O)N[C@@H](Cc2c[nH]c3ccccc23)C(=O)N1C", "note": "[Example 1514] ({CH2CO}-Y[Morpholine(3S-CO)]DPHQ[Hyp]WSW[NMeNle][NMeNle]ACG-NH2; thioether N-14)", "IC50": "1 to 9.9"}, {"smiles": "CCCC[C@H]1C(=O)N(C)[C@@H](CCCC)C(=O)N[C@@H](CCC(=O)O)C(=O)N[C@H](C(=O)NCC(N)=O)CSCC(=O)N[C@@H](Cc2ccc(O)cc2)C(=O)N2CCOC[C@H]2C(=O)N[C@@H](CC(=O)O)C(=O)N2CCC[C@H]2C(=O)N[C@@H](Cc2c[nH]cn2)C(=O)N[C@@H](CCC(N)=O)C(=O)N2C[C@H](O)C[C@H]2C(=O)N[C@@H](Cc2c[nH]c3ccccc23)C(=O)N[C@@H](CO)C(=O)N[C@@H](Cc2c[nH]c3ccccc23)C(=O)N1C", "note": "[Example 1515] ({CH2CO}-Y[Morpholine(3S-CO)]DPHQ[Hyp]WSW[NMeNle][NMeNle]ECG-NH2; thioether N-14)", "IC50": "1 to 9.9"}, {"smiles": "CCCC[C@H]1C(=O)N(C)[C@@H](CCCC)C(=O)N[C@@H](CN)C(=O)N[C@H](C(=O)NCC(N)=O)CSCC(=O)N[C@@H](Cc2ccc(O)cc2)C(=O)N2CCCC[C@H]2C(=O)N[C@@H](CC(N)=O)C(=O)N2CCC[C@H]2C(=O)N[C@@H](CN)C(=O)N[C@@H](CCC(=O)O)C(=O)N2C[C@H](O)C[C@H]2C(=O)N[C@@H](Cc2c[nH]c3ccccc23)C(=O)N[C@@H](CCN)C(=O)N[C@@H](Cc2c[nH]c3ccccc23)C(=O)N1C", "note": "[Example 1519] ({CH2CO}-Y[Pip]NP[Dap]E[Hyp]W[Dab]W[NMeNle][NMeNle][Dap]CG-NH2; thioether N-14)", "IC50": "1 to 9.9"}, {"smiles": "CCCC[C@H]1C(=O)N(C)[C@@H](CCCC)C(=O)N[C@@H](CCC(=O)O)C(=O)N[C@H](C(=O)NCC(N)=O)CSCC(=O)N[C@@H](Cc2ccc(O)cc2)C(=O)N2CCOC[C@H]2C(=O)N[C@@H](CC(=O)O)C(=O)N2CCC[C@H]2C(=O)N[C@@H](CN)C(=O)N[C@@H](CCC(=O)O)C(=O)N2C[C@H](O)C[C@H]2C(=O)N[C@@H](Cc2c[nH]c3ccccc23)C(=O)N[C@@H](CO)C(=O)N[C@@H](Cc2c[nH]c3ccccc23)C(=O)N1C", "note": "[Example 1520] ({CH2CO}-Y[Morpholine(3S-CO)]DP[Dap]E[Hyp]WSW[NMeNle][NMeNle]ECG-NH2; thioether N-14)", "IC50": "1 to 9.9"}, {"smiles": "CCCC[C@H]1C(=O)N(C)[C@@H](CCCC)C(=O)N[C@@H](CCC(=O)O)C(=O)N[C@H](C(=O)NCC(N)=O)CSCC(=O)N[C@@H](Cc2ccc(O)cc2)C(=O)N2CCCC[C@H]2C(=O)N[C@@H](CC(=O)O)C(=O)N2CCC[C@H]2C(=O)N[C@@H](CN)C(=O)N[C@@H](CCC(=O)O)C(=O)N2C[C@H](O)C[C@H]2C(=O)N[C@@H](Cc2c[nH]c3ccccc23)C(=O)N[C@@H](CO)C(=O)N[C@@H](Cc2c[nH]c3ccccc23)C(=O)N1C", "note": "[Example 1521] ({CH2CO}-Y[Pip]DP[Dap]E[Hyp]WSW[NMeNle][NMeNle]ECG-NH2; thioether N-14)", "IC50": "1 to 9.9"}, {"smiles": "CCCC[C@H]1C(=O)N(C)[C@@H](CCCC)C(=O)N[C@@H](C)C(=O)N[C@H](C(=O)NCC(N)=O)CSCC(=O)N[C@@H](Cc2ccc(O)cc2)C(=O)N2CCOC[C@H]2C(=O)N[C@@H](CC(=O)O)C(=O)N2CCC[C@H]2C(=O)N[C@@H](CN)C(=O)N[C@@H](CC(C)C)C(=O)N2C[C@H](O)C[C@H]2C(=O)N[C@@H](Cc2c[nH]c3ccccc23)C(=O)N[C@@H](CO)C(=O)N[C@@H](Cc2c[nH]c3ccccc23)C(=O)N1C", "note": "[Example 1522] ({CH2CO}-Y[Morpholine(3S-CO)]DP[Dap]L[Hyp]WSW[NMeNle][NMeNle]ACG-NH2; thioether N-14)", "IC50": "10 to 99.9"}, {"smiles": "CCCC[C@H]1C(=O)N(C)[C@@H](CCCC)C(=O)N[C@@H](C)C(=O)N[C@H](C(=O)NCC(N)=O)CSCC(=O)N[C@@H](Cc2ccc(O)cc2)C(=O)N2CCCC[C@H]2C(=O)N[C@@H](CC(=O)O)C(=O)N2CCC[C@H]2C(=O)N[C@@H](CN)C(=O)N[C@@H](CC(C)C)C(=O)N2C[C@H](O)C[C@H]2C(=O)N[C@@H](Cc2c[nH]c3ccccc23)C(=O)N[C@@H](CO)C(=O)N[C@@H](Cc2c[nH]c3ccccc23)C(=O)N1C", "note": "[Example 1523] ({CH2CO}-Y[Pip]DP[Dap]L[Hyp]WSW[NMeNle][NMeNle]ACG-NH2; thioether N-14)", "IC50": "1 to 9.9"}, {"smiles": "CCCC[C@H]1C(=O)N(C)[C@@H](CCCC)C(=O)N[C@@H](C)C(=O)N[C@H](C(=O)NCC(N)=O)CSCC(=O)N[C@@H](Cc2ccc(O)cc2)C(=O)N2CCOC[C@H]2C(=O)N[C@@H](CC(=O)O)C(=O)N2CCC[C@H]2C(=O)N[C@@H](Cc2c[nH]cn2)C(=O)N[C@@H](CC(C)C)C(=O)N2C[C@H](O)C[C@H]2C(=O)N[C@@H](Cc2c[nH]c3ccccc23)C(=O)N[C@@H](CO)C(=O)N[C@@H](Cc2c[nH]c3ccccc23)C(=O)N1C", "note": "[Example 1525]", "IC50": "1 to 9.9"}, {"smiles": "CCCC[C@H]1C(=O)N(C)[C@@H](CCCC)C(=O)N[C@@H](CCC(=O)O)C(=O)N[C@H](C(=O)NCC(N)=O)CSCC(=O)N[C@@H](Cc2ccc(O)cc2)C(=O)N2CCCC[C@H]2C(=O)N[C@@H](CC(N)=O)C(=O)N2CCC[C@H]2C(=O)N[C@@H](CN)C(=O)N[C@@H](CCC(=O)O)C(=O)N2C[C@H](O)C[C@H]2C(=O)N[C@@H](Cc2c[nH]c3ccccc23)C(=O)N[C@@H](CCN)C(=O)N[C@@H](Cc2c[nH]c3ccccc23)C(=O)N1C", "note": "[Example 1526] ({CH2CO}-Y[Pip]NP[Dap]E[Hyp]W[Dab]W[NMeNle][NMeNle]ECG-NH2; thioether N-14)", "IC50": "1 to 9.9"}]}, {"biological_target": "T1, Human PD-L1/PD-1", "experiment": "HTRF Human PD-L1/PD-1 binding assay (PD-1-Ig/PD-L1-His)", "conditions": "PD-L1-His 10 nM, PD-1-Ig 20 nM; read-out: HTRF Human PD-L1/PD-1 Binding Assay IC50", "how_it_was_run": "as §1", "units": {"IC50": "nM"}, "values": [{"smiles": "CCCC[C@H]1C(=O)N(C)[C@@H](CCCC)C(=O)N[C@@H](CCC(=O)O)C(=O)N[C@H](C(=O)NCC(N)=O)CSCC(=O)N[C@@H](Cc2ccc(O)cc2)C(=O)N2CCCC[C@H]2C(=O)N[C@@H](CC(=O)O)C(=O)N2CCC[C@H]2C(=O)N[C@@H](Cc2cnc[nH]2)C(=O)N[C@@H](CCC(N)=O)C(=O)N2C[C@H](O)C[C@H]2C(=O)N[C@@H](Cc2c[nH]c3ccccc23)C(=O)N[C@@H](CO)C(=O)N[C@@H](Cc2csc3ccccc23)C(=O)N1C", "note": "[Example 1513] ({CH2CO}-Y[Pip]DPHQ[Hyp]WS[Bta][NMeNle][NMeNle]ECG-NH2; thioether N-14)", "IC50": 5.3}]}]}
